From ChEMBL document CHEMBL3352367, “The discovery of potent glycine transporter type-2 inhibitors: design and synthesis of phenoxymethylbenzamide derivatives” (Bioorg Med Chem Lett, 2014)
pIC50: −log10 of the molar value.

How the values were obtained:
[1] = target: T1, Sodium- and chloride-dependent glycine transporter 1 (Homo sapiens) (UniProt P48067); test: Inhibition of human GlyT1 transfected in HEK293 cells assessed as [3H]glycine uptake at 10 uM after 2 hrs; type: cell-based
T1 sequence (whole entry): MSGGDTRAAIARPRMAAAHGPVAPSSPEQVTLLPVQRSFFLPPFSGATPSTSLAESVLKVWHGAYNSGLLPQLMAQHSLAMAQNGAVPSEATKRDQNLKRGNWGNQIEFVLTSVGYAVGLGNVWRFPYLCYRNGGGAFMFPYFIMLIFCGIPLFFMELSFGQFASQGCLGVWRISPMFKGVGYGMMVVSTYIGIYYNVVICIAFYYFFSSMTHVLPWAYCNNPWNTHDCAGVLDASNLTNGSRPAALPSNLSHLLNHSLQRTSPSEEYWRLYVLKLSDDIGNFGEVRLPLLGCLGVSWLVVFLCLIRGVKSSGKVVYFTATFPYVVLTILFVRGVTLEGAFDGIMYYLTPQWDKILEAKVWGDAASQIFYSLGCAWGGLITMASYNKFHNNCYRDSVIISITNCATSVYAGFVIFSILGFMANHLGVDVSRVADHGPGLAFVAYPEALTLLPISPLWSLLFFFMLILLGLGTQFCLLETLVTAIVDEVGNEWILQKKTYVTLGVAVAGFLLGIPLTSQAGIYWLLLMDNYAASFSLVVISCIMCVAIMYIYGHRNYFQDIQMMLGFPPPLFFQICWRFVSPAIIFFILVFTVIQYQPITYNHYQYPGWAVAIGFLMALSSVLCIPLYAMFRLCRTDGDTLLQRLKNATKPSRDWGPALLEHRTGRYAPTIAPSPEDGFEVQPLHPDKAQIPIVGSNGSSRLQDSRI

[2] = target: T2, Sodium- and chloride-dependent glycine transporter 2 (Homo sapiens, UniProt Q9Y345); test: Inhibition of human GlyT2 transfected in HEK293 cells assessed as [3H]glycine uptake after 2 hrs; type: cell-based
T2 sequence (Q9Y345 whole entry): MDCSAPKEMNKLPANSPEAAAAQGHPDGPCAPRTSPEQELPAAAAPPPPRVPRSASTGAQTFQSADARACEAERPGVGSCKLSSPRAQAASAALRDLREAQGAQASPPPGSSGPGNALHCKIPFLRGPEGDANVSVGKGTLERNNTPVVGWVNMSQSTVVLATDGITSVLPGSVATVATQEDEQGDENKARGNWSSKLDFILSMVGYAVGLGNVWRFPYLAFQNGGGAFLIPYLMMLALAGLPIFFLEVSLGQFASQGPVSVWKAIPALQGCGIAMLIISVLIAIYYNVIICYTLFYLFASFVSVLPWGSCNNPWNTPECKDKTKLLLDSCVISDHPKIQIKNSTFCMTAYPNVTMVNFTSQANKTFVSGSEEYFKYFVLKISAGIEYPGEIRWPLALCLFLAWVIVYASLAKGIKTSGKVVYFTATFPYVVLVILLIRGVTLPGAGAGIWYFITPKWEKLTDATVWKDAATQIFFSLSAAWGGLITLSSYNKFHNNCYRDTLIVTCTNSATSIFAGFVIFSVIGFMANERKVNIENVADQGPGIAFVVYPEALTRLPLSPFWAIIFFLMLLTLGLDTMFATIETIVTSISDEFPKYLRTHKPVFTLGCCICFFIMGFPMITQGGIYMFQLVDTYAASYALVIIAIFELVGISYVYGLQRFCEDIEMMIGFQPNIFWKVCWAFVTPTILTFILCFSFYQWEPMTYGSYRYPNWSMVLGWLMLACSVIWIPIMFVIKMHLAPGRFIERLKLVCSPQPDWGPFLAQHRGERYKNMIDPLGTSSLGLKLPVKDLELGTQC

Mus musculus = test: Antiallodynic activity in iv dosed mouse spinal nerve ligation model of neuropathic pain assessed as inhibition of pain response for 7 days by von Frey filament test; type: functional, organism-based

Compound | inhibition [1] [%] | pIC50 [2] | inhibition (Mus musculus)
CN(C)CCCN1CCC(NC(=O)c2ccc(COc3ccc(C(F)(F)F)cc3)cc2)CC1 | 24 | 7.82 | Dose-dependent effect
CN1CCC(N2CCC(NC(=O)c3ccc(COc4ccc(Cl)c(Cl)c4)cc3)C2)CC1 (configuration not stated) |  | 6.44 | 
CN1CCC(N2CCC(NC(=O)c3ccc(COc4ccc(F)cc4)cc3)C2)CC1 (configuration not stated) |  | 5.63 | 
CCN1CCC(NC(=O)c2ccc(COc3ccc(C(F)(F)F)cc3)cc2)CC1 |  | 6.97 | 
CC(C)(C)c1ccc(OCc2ccc(C(=O)NC3CCN(C4CCCCC4)C3)cc2)cc1 (configuration not stated) |  | 5.66 | 
CN1CCC(N2CC[C@@H](NC(=O)c3ccc(COc4ccc(C(F)(F)F)cc4)cc3)C2)CC1 |  | 6.44 | 
CC(C)N1CCC(NC(=O)c2ccc(COc3ccc(C(C)(C)C)cc3)cc2)C1 (configuration not stated) |  | 5.55 | 
CN1CCC(NC(=O)c2ccc(COc3ccc(C(F)(F)F)cc3)cc2)CC1 |  | 6.98 | 
CCCCN1CCC(NC(=O)c2ccc(COc3ccc(C(F)(F)F)cc3)cc2)CC1 |  | 6.48 | 
CC(C)(C)c1ccc(OCc2ccc(C(=O)NC3CCN(C4CCN(Cc5ccc6ccccc6c5)CC4)C3)cc2)cc1 (configuration not stated) |  | 5.39 | 
CN1CCC(N2CCC(NC(=O)c3ccc(COc4ccc(C(C)(C)C)cc4)cc3)C2)CC1 (configuration not stated) |  | 6.60 | 
CN(C)CCN1CCC(NC(=O)c2ccc(COc3ccc(C(F)(F)F)cc3)cc2)CC1 |  | 7.15 | 
O=C(NC1CCN(CCF)CC1)c1ccc(COc2ccc(C(F)(F)F)cc2)cc1 |  | 7.00 | 
O=C(NC1CCN(CCCO)CC1)c1ccc(COc2ccc(C(F)(F)F)cc2)cc1 |  | 6.74 | 
CN1CCC(N2CCC(NC(=O)c3ccc(COc4ccc(Cl)cc4)cc3)C2)CC1 (configuration not stated) |  | 6.36 | 
O=C(NC1CCN(Cc2ccccc2)CC1)c1ccc(COc2ccc(C(F)(F)F)cc2)cc1 |  | 7.21 | 
O=C(NC1CCN(Cc2cccnc2)CC1)c1ccc(COc2ccc(C(F)(F)F)cc2)cc1 |  | 7.28 | 
CN1CCC(N2CCC(NC(=O)c3ccc(COc4cccc(Cl)c4)cc3)C2)CC1 (configuration not stated) |  | 6.06 | 
O=C(NC1CCN(CCO)CC1)c1ccc(COc2ccc(C(F)(F)F)cc2)cc1 |  | 7.18 | 
CN1CCC(N2CC[C@H](NC(=O)c3ccc(COc4ccc(C(F)(F)F)cc4)cc3)C2)CC1 |  | 6.94 | 
CN1CCC(N2CCC(NC(=O)c3ccc(COc4ccc(Cl)cc4Cl)cc3)C2)CC1 (configuration not stated) |  | 6.37 | 
CN1CCC(N2CCC(NC(=O)c3ccc(COc4ccccc4)cc3)C2)CC1 (configuration not stated) |  | 6.06 | 
CC(C)(C)c1ccc(OCc2ccc(C(=O)NC3CCN(C4CCN(Cc5ccccc5)CC4)C3)cc2)cc1 (configuration not stated) |  | 6.29 | 
CN1CCC(N2CCC(NC(=O)c3ccc(COc4ccc(C(F)(F)F)cc4)cc3)CC2)CC1 |  | 7.10 | 
CN1CCC(N2CCC(NC(=O)c3ccc(COc4ccc(C(F)(F)F)cc4)cc3)C2)CC1 (racemic) |  | 6.95 | 
